Article PMC5452050 (ACS Omega, 2017)

Tests used:
PBS stability = format: physicochemical
[1] = Liver microsomal stability; settings: female, CD-1, mouse, liver microsomes, pH 7.4
Plasma stability [2] = format: in vitro ADME; settings: human
[3] = Liver microsomal stability; settings: rat, liver microsomes, pH 7.4
FLT3-ITD phosphorylation = experiment: Western blot of FLT3 signaling in MOLM13^FLT3-ITD cells; format: cell-based; settings: 1 h, read-out: FLT3 IC50 estimated from loss of FLT3-ITD phosphorylation
CLK4 = CLK4 (Homo sapiens, UniProt Q9HAZ1); experiment: Kd determination; format: binding
[4] = biological target: JAK2 (JH1 domain-catalytic) (Homo sapiens, UniProt O60674); experiment: Kd determination; format: binding
CSF1R = CSF1R (Homo sapiens, UniProt P07333); experiment: Kd determination; format: binding
[5] = biological target: JAK1 (JH2 domain-pseudokinase) (Homo sapiens, UniProt P23458); experiment: Kd determination; format: binding
[6] = In vivo pharmacokinetic study; set-up: species or system mouse
Plasma stability [7] = format: in vitro ADME; settings: mouse
Simulated gastric fluid = format: physicochemical
Plasma stability [8] = format: in vitro ADME; settings: rat
MV4-11 cells = experiment: MV4-11 cell proliferation; format: cell-based
SRC = SRC (Homo sapiens, UniProt P12931); experiment: Kd determination; format: binding
RET (V804M) = RET (V804M) (Homo sapiens, UniProt P07949, V804M); experiment: Kd determination; format: binding
AXL = AXL (Homo sapiens, UniProt P30530); experiment: Kd determination; format: binding
TRKA = TRKA (Homo sapiens, UniProt P04629); experiment: Kd determination; format: binding
[9] = biological target: T1, recombinant human FLT3 (571–993) (Homo sapiens, UniProt P36888); experiment: biochemical; format: biochemical
T1 sequence (P36888 571-993): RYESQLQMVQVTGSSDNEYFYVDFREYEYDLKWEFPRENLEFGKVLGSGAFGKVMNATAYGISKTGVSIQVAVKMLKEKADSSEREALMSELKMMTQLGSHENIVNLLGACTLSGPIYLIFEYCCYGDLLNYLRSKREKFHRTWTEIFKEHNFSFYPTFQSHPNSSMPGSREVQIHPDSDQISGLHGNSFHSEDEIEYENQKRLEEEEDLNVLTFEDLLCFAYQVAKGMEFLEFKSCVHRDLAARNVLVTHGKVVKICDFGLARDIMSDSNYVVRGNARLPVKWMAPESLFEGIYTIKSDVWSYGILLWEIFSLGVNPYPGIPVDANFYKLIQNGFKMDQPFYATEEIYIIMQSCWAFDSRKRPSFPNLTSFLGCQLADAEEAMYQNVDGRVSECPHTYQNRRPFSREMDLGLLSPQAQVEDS

KIT = KIT (Homo sapiens, UniProt P10721); experiment: Kd determination; format: binding
LCK = LCK (Homo sapiens, UniProt P06239); experiment: Kd determination; format: binding
AURKC = AURKC (Homo sapiens, UniProt Q9UQB9); experiment: Kd determination; format: binding
PRKCQ = PRKCQ (Homo sapiens, UniProt Q04759); experiment: Kd determination; format: binding
TYRO3 = TYRO3 (Homo sapiens, UniProt Q06418); experiment: Kd determination; format: binding
AURKA = AURKA (Homo sapiens, UniProt O14965); experiment: Kd determination; format: binding
CSF1R-autoinhibited = CSF1R-autoinhibited (Homo sapiens, UniProt P07333); experiment: Kd determination; format: binding
RET (M918T) = RET (M918T) (Homo sapiens, UniProt P07949, M918T); experiment: Kd determination; format: binding
HCK = HCK (Homo sapiens, UniProt P08631); experiment: Kd determination; format: binding
[10] = biological target: ABL1 (H396P)-phosphorylated (Homo sapiens, UniProt P00519, H396P); experiment: Kd determination; format: binding
MERTK = MERTK (Homo sapiens, UniProt Q12866); experiment: Kd determination; format: binding
IRAK1 = IRAK1 (Homo sapiens, UniProt P51617); experiment: Kd determination; format: binding
BLK = BLK (Homo sapiens, UniProt P51451); experiment: Kd determination; format: binding
MINK = MINK (Homo sapiens, UniProt Q8N4C8); experiment: Kd determination; format: binding
[11] = female, C57BL/6, mouse, plasma, ip, 3 mg/kg
[12] = female, C57BL/6, mouse, plasma, ip, 5 mg/kg
[13] = female, C57BL/6, mouse, plasma, ip, 10 mg/kg

Sequence of CLK4 (Q9HAZ1 whole entry, the tested form may be a part): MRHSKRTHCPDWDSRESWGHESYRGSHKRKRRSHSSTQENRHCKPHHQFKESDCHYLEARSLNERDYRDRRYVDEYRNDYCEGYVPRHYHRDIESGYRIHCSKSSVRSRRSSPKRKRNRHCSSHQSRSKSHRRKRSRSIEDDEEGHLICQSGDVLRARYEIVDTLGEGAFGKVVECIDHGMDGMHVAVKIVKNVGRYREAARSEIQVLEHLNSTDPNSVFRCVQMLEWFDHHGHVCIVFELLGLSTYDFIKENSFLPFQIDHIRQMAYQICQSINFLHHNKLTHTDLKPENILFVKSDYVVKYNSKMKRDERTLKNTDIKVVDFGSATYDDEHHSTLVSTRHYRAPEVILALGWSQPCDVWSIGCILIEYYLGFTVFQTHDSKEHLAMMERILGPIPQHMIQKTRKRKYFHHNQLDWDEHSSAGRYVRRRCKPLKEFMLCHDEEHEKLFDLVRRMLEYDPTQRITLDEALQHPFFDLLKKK
Sequence of TYRO3 (Q06418 41-890): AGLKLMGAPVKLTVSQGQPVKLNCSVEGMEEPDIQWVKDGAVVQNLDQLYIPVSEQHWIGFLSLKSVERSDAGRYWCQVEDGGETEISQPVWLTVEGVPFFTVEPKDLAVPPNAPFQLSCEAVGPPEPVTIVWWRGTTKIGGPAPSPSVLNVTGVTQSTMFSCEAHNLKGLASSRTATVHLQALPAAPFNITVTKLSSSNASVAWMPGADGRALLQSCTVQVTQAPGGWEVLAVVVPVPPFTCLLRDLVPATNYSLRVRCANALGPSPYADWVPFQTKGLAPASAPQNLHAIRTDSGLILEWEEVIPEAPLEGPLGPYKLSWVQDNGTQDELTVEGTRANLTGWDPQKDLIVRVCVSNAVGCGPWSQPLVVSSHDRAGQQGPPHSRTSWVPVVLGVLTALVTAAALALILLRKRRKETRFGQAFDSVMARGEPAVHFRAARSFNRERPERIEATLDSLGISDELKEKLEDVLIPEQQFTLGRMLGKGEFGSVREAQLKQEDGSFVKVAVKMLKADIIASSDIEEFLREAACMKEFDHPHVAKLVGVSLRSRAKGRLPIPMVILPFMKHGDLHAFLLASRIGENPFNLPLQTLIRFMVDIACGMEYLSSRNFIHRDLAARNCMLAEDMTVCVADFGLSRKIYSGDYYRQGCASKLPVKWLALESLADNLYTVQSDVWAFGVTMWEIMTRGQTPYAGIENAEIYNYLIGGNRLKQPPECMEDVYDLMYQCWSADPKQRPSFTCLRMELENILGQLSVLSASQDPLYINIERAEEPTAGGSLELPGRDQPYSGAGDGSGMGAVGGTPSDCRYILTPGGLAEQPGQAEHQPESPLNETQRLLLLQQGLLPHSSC
Sequence of CSF1R-autoinhibited (P07333 539-972 limits assumed): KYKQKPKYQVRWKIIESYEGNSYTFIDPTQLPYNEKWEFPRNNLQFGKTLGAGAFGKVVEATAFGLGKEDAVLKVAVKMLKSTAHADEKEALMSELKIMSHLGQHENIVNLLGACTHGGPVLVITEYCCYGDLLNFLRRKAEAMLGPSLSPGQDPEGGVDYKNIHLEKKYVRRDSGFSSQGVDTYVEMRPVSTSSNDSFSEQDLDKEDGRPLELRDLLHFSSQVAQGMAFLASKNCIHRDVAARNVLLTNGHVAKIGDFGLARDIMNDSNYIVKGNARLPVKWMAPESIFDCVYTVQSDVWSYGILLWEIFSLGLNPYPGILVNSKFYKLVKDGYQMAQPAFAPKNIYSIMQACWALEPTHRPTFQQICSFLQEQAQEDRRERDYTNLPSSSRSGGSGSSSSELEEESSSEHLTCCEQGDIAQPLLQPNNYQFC
Sequence of PRKCQ (Q04759 whole entry): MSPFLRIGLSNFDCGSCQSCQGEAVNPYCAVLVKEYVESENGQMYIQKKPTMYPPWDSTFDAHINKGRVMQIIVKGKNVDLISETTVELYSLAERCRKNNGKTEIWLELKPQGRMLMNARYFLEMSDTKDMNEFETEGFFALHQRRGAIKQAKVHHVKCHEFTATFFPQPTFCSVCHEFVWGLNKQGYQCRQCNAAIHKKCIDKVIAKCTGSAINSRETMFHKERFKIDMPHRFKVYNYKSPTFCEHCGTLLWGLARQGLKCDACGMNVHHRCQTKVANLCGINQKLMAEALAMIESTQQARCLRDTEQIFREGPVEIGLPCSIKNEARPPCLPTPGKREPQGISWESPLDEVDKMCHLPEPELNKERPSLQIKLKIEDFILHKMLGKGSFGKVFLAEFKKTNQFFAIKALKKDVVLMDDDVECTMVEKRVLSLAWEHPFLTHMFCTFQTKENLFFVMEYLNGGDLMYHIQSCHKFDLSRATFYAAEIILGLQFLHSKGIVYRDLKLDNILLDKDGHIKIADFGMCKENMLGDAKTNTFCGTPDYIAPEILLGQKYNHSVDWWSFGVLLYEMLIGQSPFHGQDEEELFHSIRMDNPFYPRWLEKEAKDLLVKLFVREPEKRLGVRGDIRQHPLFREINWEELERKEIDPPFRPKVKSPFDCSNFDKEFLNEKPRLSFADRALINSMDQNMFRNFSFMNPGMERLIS
Sequence of SRC (P12931 whole entry): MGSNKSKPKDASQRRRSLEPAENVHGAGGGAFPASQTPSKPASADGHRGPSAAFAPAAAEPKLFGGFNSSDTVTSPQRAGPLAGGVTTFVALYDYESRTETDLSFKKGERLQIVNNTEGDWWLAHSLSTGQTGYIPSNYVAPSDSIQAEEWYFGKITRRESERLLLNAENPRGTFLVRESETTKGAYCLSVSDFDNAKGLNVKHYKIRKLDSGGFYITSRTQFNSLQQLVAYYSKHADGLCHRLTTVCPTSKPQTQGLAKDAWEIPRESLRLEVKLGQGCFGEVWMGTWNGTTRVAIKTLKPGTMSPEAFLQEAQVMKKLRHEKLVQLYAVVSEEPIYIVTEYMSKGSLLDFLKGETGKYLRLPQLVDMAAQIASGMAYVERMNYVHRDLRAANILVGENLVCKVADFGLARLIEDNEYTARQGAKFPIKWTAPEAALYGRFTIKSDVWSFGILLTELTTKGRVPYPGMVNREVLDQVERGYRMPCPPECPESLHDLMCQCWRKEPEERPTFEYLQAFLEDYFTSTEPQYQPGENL
Sequence of HCK (P08631 whole entry): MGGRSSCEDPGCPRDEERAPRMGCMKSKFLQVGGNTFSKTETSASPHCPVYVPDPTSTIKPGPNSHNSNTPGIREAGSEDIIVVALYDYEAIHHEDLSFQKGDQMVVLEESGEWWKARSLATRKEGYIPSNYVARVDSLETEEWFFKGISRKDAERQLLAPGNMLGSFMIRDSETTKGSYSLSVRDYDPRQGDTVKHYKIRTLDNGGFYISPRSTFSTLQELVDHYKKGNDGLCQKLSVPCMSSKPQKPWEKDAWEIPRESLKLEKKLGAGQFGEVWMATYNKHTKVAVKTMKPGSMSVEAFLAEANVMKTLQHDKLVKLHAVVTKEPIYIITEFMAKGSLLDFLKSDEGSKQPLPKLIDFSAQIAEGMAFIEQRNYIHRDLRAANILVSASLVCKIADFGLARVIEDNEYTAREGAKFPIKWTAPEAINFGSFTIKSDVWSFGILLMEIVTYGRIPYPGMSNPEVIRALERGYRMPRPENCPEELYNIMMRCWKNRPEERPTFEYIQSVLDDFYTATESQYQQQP
Sequence of BLK (P51451 whole entry): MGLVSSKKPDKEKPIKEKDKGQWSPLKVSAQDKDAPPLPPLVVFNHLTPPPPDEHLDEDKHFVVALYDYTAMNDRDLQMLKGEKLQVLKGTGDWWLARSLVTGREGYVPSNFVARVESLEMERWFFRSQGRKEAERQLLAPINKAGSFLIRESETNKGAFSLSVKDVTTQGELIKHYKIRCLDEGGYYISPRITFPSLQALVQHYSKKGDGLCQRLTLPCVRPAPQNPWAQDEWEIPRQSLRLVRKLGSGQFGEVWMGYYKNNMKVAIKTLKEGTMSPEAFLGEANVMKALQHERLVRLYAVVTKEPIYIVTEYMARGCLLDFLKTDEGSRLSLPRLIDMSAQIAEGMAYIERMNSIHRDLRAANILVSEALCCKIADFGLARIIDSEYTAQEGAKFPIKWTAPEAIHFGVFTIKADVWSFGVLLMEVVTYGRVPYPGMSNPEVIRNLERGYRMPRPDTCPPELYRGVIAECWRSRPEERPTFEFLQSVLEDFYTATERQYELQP
Sequence of CSF1R (P07333 20-972): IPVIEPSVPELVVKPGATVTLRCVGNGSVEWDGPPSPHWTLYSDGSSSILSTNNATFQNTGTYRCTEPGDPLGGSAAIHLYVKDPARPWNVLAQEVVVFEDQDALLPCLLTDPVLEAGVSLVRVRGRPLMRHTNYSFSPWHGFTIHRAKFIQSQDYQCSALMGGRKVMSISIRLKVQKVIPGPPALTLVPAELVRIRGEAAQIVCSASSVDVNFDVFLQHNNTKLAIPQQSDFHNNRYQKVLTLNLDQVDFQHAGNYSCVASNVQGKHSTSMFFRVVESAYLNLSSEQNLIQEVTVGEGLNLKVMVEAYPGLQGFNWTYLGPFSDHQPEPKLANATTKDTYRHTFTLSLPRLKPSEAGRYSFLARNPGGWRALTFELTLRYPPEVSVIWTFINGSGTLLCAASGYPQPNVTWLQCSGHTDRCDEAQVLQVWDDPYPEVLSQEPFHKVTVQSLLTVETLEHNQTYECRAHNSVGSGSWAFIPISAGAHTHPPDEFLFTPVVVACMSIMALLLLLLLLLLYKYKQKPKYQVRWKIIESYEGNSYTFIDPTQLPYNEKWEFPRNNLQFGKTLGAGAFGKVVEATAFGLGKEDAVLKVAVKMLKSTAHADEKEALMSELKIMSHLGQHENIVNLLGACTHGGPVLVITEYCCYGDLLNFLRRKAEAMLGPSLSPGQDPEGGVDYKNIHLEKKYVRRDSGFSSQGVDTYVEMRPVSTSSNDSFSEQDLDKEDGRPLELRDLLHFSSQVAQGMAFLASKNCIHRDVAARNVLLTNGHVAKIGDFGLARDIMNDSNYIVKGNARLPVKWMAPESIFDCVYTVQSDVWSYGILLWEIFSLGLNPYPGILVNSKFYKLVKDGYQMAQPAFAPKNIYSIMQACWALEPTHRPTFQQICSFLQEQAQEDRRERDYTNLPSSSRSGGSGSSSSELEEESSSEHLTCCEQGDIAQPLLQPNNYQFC

CC(C)Nc1ccnc(Nc2cccc(-c3cccnc3)c2)n1 [Compound 5e, N^4-Isopropyl-N^2-(3-(pyridin-3-yl)phenyl)pyrimidine-2,4-diamine]
PBS stability (PBS stability; pH = 3.0): >48 h | PBS stability (PBS stability; pH = 5.0): >48 h | PBS stability (PBS stability; pH = 7.4): >48 h | CLint scaled at 4 µM [1]: 180 ± 19.4 mL/min/kg | half-life [1]: 12 to 60 min | half-life at 4 µM [1]: 18 ± 1.8 min | plasma stability (Plasma stability [2]): >48 h | CLint scaled at 4 µM [3]: 41.7 ± 2.7 mL/min/kg | half-life at 4 µM [3]: 66 ± 6 min | IC50 (FLT3-ITD phosphorylation): 50 to 100 nM | Kd (CLK4): 1100 nM | Kd [4]: 480 nM | Kd (CSF1R): 460 nM | Kd [5]: 28 nM | AUC [6, 11]: 0.183 µM·h | Tmax [6, 11]: 4.98 min | Cmax ([6]; female, C57BL/6, mouse, plasma, ip, 3 mg/kg, Cmax, mice): 327 nM | half-life ([6]; female, C57BL/6, mouse, plasma, ip, 3 mg/kg, T1/2, mice): 13.8 min | AUC [6, 12]: 0.683 µM·h | Tmax [6, 12]: 4.98 min | Cmax ([6]; female, C57BL/6, mouse, plasma, ip, 5 mg/kg, Cmax, mice): 927 nM | half-life ([6]; female, C57BL/6, mouse, plasma, ip, 5 mg/kg, T1/2, mice): 32.4 min | AUC [6, 13]: 0.953 µM·h | Tmax [6, 13]: 15 min | Cmax ([6]; female, C57BL/6, mouse, plasma, ip, 10 mg/kg, Cmax, mice): 1620 nM | half-life ([6]; female, C57BL/6, mouse, plasma, ip, 10 mg/kg, T1/2, mice): 60 min | half-life ([6]; female, C57BL/6, mouse, plasma, ip, 10 mg/kg, half-life, mice, across 3, 5 and 10 mg/kg): 13.8 to 60 min | Cl ([6]; mice, i.p., 3 mg/kg): 50.7 L/h/kg | Cmax ([6]; mice, i.p., 3 mg/kg): 376 nM | Vz ([6]; mice, i.p., 3 mg/kg): 16.7 L/kg | Cl ([6]; mice, i.p., 5 mg/kg): 23.8 L/h/kg | Vz ([6]; mice, i.p., 5 mg/kg): 18.6 L/kg | Cl ([6]; mice, i.p., 10 mg/kg): 33.1 L/h/kg | Cmax ([6]; mice, i.p., 10 mg/kg): 1650 nM | Vz ([6]; mice, i.p., 10 mg/kg): 47.3 L/kg | plasma stability (Plasma stability [7]): >48 h | SGF stability (Simulated gastric fluid): >48 h | plasma stability (Plasma stability [8]): >48 h | fold improvement in MV4-11 growth inhibition relative to 1 (MV4-11 cells): approximately 10 fold

c1cncc(-c2cccc(Nc3nccc(NC4CCCCC4)n3)c2)c1 [Compound 1, N^4-Cyclohexyl-N^2-(3-(pyridin-3-yl)phenyl)pyrimidine-2,4-diamine]
Kd (SRC): 1100 nM | CLint scaled at 4 µM [1]: 26.5 ± 1.6 mL/min/kg | half-life at 4 µM [1]: 15.6 ± 1.8 min | Kd (RET (V804M)): 1400 nM | Kd (AXL): 2100 nM | CLint scaled at 4 µM [3]: 44.9 ± 1.4 mL/min/kg | half-life at 4 µM [3]: 62.4 ± 1.8 min | Kd (TRKA): 1100 nM | IC50 ([9]; FLT3 IC50, 100 μM ATP): < 6 nM | IC50 ([9]; FLT3 IC50, 2.5 mM ATP): 116 nM | Kd (KIT): 1500 nM | Kd (LCK): 2900 nM | Kd (AURKC): > 10 µM | Kd (PRKCQ): 1600 nM | Kd (TYRO3): 2700 nM | Kd (CLK4): 690 nM | Kd (AURKA): 1600 nM | Kd (CSF1R-autoinhibited): 1500 nM | Kd (RET (M918T)): 1200 nM | Kd (HCK): 2100 nM | Kd [10]: 2100 nM | Kd (MERTK): 2800 nM | Kd (IRAK1): 1500 nM | Kd (BLK): 3.9 µM | Kd (MINK): 2500 nM
